Measurements published in PubChem BioAssay AID248 (DTP/NCI, 2004).
Values joined by “and” are separate entries in the source; they are usually repeats but may differ in a detail not shown here. Equal values may be shown once. Toxic doses and inconclusive results are not listed.

System: L1210 leukemia ip in BDF1 mice, survival T/C
Assay: NCI In Vivo Anticancer Drug Screen. Data for tumor model L1210 Leukemia (intraperitoneal) in B6D2F1 (BDF1) mice
Conditions: higher = longer survival
Summary of the method: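 Ratio derived from survival: compound-dosed mice over vehicle-dosed mice, all bearing a transplantable tumor.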

[1] = endpoint: mean survival time, dose: 100.0 mg/kg/injection, schedule: Q01DX001 (ip), vehicle: saline
[2] = endpoint: mean survival time, dose: 200.0 mg/kg/injection, schedule: Q01DX001 (ip), vehicle: saline

NC(N)=NC(N)=NCCCc1ccccc1
T/C (endpoint: mean survival time, dose: 12.5 mg/kg/injection, schedule: Q01DX001 (ip), vehicle: other): 107 % of control
T/C (endpoint: mean survival time, dose: 12.5 mg/kg/injection, schedule: Q04DX003 (ip), vehicle: other): 97 % of control
T/C (endpoint: mean survival time, dose: 25.0 mg/kg/injection, schedule: Q01DX001 (ip), vehicle: other): 96 % of control
T/C (endpoint: mean survival time, dose: 25.0 mg/kg/injection, schedule: Q04DX003 (ip), vehicle: other): 94 % of control
T/C (endpoint: mean survival time, dose: 50.0 mg/kg/injection, schedule: Q01DX001 (ip), vehicle: other): 102 % of control
T/C (endpoint: mean survival time, dose: 50.0 mg/kg/injection, schedule: Q04DX003 (ip), vehicle: other): 97 % of control
T/C [1]: 96 % of control
T/C [2]: 96 % of control

OCC(O)C(O)C(O)C(O)C(c1ccc(Br)cc1)c1ccc(Br)cc1 (stereo unspecified)
T/C (endpoint: mean survival time, dose: 50.0 mg/kg/injection, schedule: Q01DX001 (ip), vehicle: saline): 106 % of control
T/C [1]: 106 % of control
T/C [2]: 101 % of control
T/C (endpoint: mean survival time, dose: 400.0 mg/kg/injection, schedule: Q01DX001 (ip), vehicle: saline): 98 % of control

C[CH2][Hg][Cl]
T/C (endpoint: mean survival time, dose: 12.5 mg/kg/injection, schedule: Q04DX002 (ip), vehicle: Klucel (hydroxypropylcellulose) (HPC)): 97 % of control
T/C (endpoint: mean survival time, dose: 25.0 mg/kg/injection, schedule: Q04DX002 (ip), vehicle: Klucel (hydroxypropylcellulose) (HPC)): 94 % of control
T/C [1]: 97 % of control

O=C(OC(=O)c1cccc(-c2ccccc2)c1)c1cccc(-c2ccccc2)c1
T/C (endpoint: mean survival time, dose: 100.0 mg/kg/injection, schedule: Q04DX003 (ip), vehicle: Klucel (hydroxypropylcellulose) (HPC)): 104 % of control
T/C (endpoint: mean survival time, dose: 200.0 mg/kg/injection, schedule: Q04DX003 (ip), vehicle: Klucel (hydroxypropylcellulose) (HPC)): 101 % of control
T/C (endpoint: mean survival time, dose: 400.0 mg/kg/injection, schedule: Q04DX003 (ip), vehicle: Klucel (hydroxypropylcellulose) (HPC)): 96 % of control

CC(C)(C)C1CCC2(CC1)CCN(N1CCCCCC1)CC2
T/C (endpoint: mean survival time, dose: 50.0 mg/kg/injection, schedule: Q01DX001 (ip), vehicle: carboxymethylcellulose (CMC)): 101 % of control
T/C (endpoint: mean survival time, dose: 100.0 mg/kg/injection, schedule: Q01DX001 (ip), vehicle: carboxymethylcellulose (CMC)): 111 % of control
T/C (endpoint: mean survival time, dose: 200.0 mg/kg/injection, schedule: Q01DX001 (ip), vehicle: carboxymethylcellulose (CMC)): 95 % of control
T/C (endpoint: mean survival time, dose: 400.0 mg/kg/injection, schedule: Q01DX001 (ip), vehicle: carboxymethylcellulose (CMC)): 103 % of control

COCCOC
T/C (endpoint: mean survival time, dose: 86.0 mg/kg/injection, schedule: Q01DX Z (ip), vehicle: saline): 103 % of control
T/C (endpoint: mean survival time, dose: 100.0 mg/kg/injection, schedule: Q04DX003 (ip), vehicle: acetone): 107 % of control
T/C (endpoint: mean survival time, dose: 125.0 mg/kg/injection, schedule: Q01DX Z (ip), vehicle: saline): 106 % of control
T/C (endpoint: mean survival time, dose: 130.0 mg/kg/injection, schedule: Q01DX Z (ip), vehicle: saline): 106 % of control
T/C (endpoint: mean survival time, dose: 200.0 mg/kg/injection, schedule: Q04DX003 (ip), vehicle: acetone): 102 % of control
T/C (endpoint: mean survival time, dose: 250.0 mg/kg/injection, schedule: Q01DX Z (ip), vehicle: saline): 113 % of control
T/C (endpoint: mean survival time, dose: 400.0 mg/kg/injection, schedule: Q04DX003 (ip), vehicle: acetone): 102 % of control
T/C (endpoint: mean survival time, dose: 450.0 mg/kg/injection, schedule: Q01DX Z (ip), vehicle: saline): 154 % of control
T/C (endpoint: mean survival time, dose: 500.0 mg/kg/injection, schedule: Q01DX Z (ip), vehicle: saline): 116 % of control
T/C (endpoint: mean survival time, dose: 675.0 mg/kg/injection, schedule: Q01DX Z (ip), vehicle: saline): 150 % of control and 160 % of control
T/C (endpoint: mean survival time, dose: 1500.0 mg/kg/injection, schedule: Q01DX Z (ip), vehicle: saline): 96 % of control

CN=C(N)Nc1ccc(NC(=O)c2ccc(C(=O)Nc3ccc(NC(N)=NC)cc3)cc2)cc1
T/C (endpoint: mean survival time, dose: 0.25 mg/kg/injection, schedule: Q01DX015 (ip), vehicle: methylcellulose (MC)): 113 % of control
T/C (endpoint: mean survival time, dose: 0.25 mg/kg/injection, schedule: Q01DX Z (ip), vehicle: carboxymethylcellulose (CMC)): 107 % of control
T/C (endpoint: mean survival time, dose: 0.5 mg/kg/injection, schedule: Q01DX015 (ip), vehicle: methylcellulose (MC)): 110 % of control
T/C (endpoint: mean survival time, dose: 0.5 mg/kg/injection, schedule: Q01DX Z (ip), vehicle: carboxymethylcellulose (CMC)): 123 % of control
T/C (endpoint: mean survival time, dose: 1.0 mg/kg/injection, schedule: Q01DX Z (ip), vehicle: carboxymethylcellulose (CMC)): 156 % of control
T/C (endpoint: mean survival time, dose: 2.0 mg/kg/injection, schedule: Q01DX015 (ip), vehicle: methylcellulose (MC)): 236 % of control
T/C (endpoint: mean survival time, dose: 2.0 mg/kg/injection, schedule: Q01DX Z (ip), vehicle: carboxymethylcellulose (CMC)): 231 % of control and 254 % of control
T/C (endpoint: mean survival time, dose: 4.0 mg/kg/injection, schedule: Q01DX015 (ip), vehicle: methylcellulose (MC)): 228 % of control
T/C (endpoint: mean survival time, dose: 4.0 mg/kg/injection, schedule: Q01DX Z (ip), vehicle: carboxymethylcellulose (CMC)): 211 % of control
T/C (endpoint: mean survival time, dose: 16.0 mg/kg/injection, schedule: Q01DX015 (ip), vehicle: methylcellulose (MC)): 93 % of control
T/C (endpoint: mean survival time, dose: 17.0 mg/kg/injection, schedule: Q01DX Z (ip), vehicle: carboxymethylcellulose (CMC)): 100 % of control
T/C (endpoint: mean survival time, dose: 30.0 mg/kg/injection, schedule: Q01DX001 (ip), vehicle: methylcellulose (MC)): 163 % of control and 211 % of control
T/C (endpoint: mean survival time, dose: 62.0 mg/kg/injection, schedule: Q01DX Z (oral), vehicle: carboxymethylcellulose (CMC)): 98 % of control
T/C (endpoint: mean survival time, dose: 125.0 mg/kg/injection, schedule: Q01DX Z (oral), vehicle: carboxymethylcellulose (CMC)): 101 % of control
T/C (endpoint: mean survival time, dose: 250.0 mg/kg/injection, schedule: Q01DX Z (oral), vehicle: carboxymethylcellulose (CMC)): 105 % of control
T/C (endpoint: mean survival time, dose: 500.0 mg/kg/injection, schedule: Q01DX Z (oral), vehicle: carboxymethylcellulose (CMC)): 105 % of control

Cc1cn(-c2ccccc2)c(C)c(C(=O)O)c1=O
T/C (endpoint: mean survival time, dose: 100.0 mg/kg/injection, schedule: Q01DX001 (ip), vehicle: other): 101 % of control
T/C (endpoint: mean survival time, dose: 200.0 mg/kg/injection, schedule: Q01DX001 (ip), vehicle: other): 102 % of control
T/C (endpoint: mean survival time, dose: 400.0 mg/kg/injection, schedule: Q01DX001 (ip), vehicle: other): 91 % of control

CCCCOP1(=O)C=C(C)CC1 (stereo unspecified)
T/C (endpoint: mean survival time, dose: 100.0 mg/kg/injection, schedule: Q04DX003 (ip), vehicle: saline with Tween-80): 90 % of control
T/C (endpoint: mean survival time, dose: 200.0 mg/kg/injection, schedule: Q04DX003 (ip), vehicle: saline with Tween-80): 97 % of control
T/C (endpoint: mean survival time, dose: 400.0 mg/kg/injection, schedule: Q04DX003 (ip), vehicle: saline with Tween-80): 92 % of control

Nc1ncnc2[nH]ncc12
T/C (endpoint: mean survival time, dose: 0.94 mg/kg/injection, schedule: Q01DX Z (ip), vehicle: carboxymethylcellulose (CMC)): 92 % of control
T/C (endpoint: mean survival time, dose: 1.7 mg/kg/injection, schedule: Q01DX015 (ip), vehicle: carboxymethylcellulose (CMC)): 98 % of control
T/C (endpoint: mean survival time, dose: 1.88 mg/kg/injection, schedule: Q01DX Z (ip), vehicle: carboxymethylcellulose (CMC)): 97 % of control
T/C (endpoint: mean survival time, dose: 2.6 mg/kg/injection, schedule: Q01DX015 (ip), vehicle: carboxymethylcellulose (CMC)): 96 % of control and 99 % of control
T/C (endpoint: mean survival time, dose: 3.75 mg/kg/injection, schedule: Q01DX Z (ip), vehicle: carboxymethylcellulose (CMC)): 114 % of control
T/C (endpoint: mean survival time, dose: 4.0 mg/kg/injection, schedule: Q01DX015 (ip), vehicle: carboxymethylcellulose (CMC)): 107 % of control and 108 % of control
T/C (endpoint: mean survival time, dose: 6.0 mg/kg/injection, schedule: Q01DX015 (ip), vehicle: carboxymethylcellulose (CMC)): 111 % of control and 114 % of control
T/C (endpoint: mean survival time, dose: 7.5 mg/kg/injection, schedule: Q01DX Z (ip), vehicle: carboxymethylcellulose (CMC)): 114 % of control
T/C (endpoint: mean survival time, dose: 8.0 mg/kg/injection, schedule: Q02DX010 (ip), vehicle: carboxymethylcellulose (CMC)): 109 % of control
T/C (endpoint: mean survival time, dose: 9.0 mg/kg/injection, schedule: Q01DX015 (ip), vehicle: carboxymethylcellulose (CMC)): 109 % of control and 120 % of control
T/C (endpoint: mean survival time, dose: 13.0 mg/kg/injection, schedule: Q02DX010 (ip), vehicle: other): 115 % of control
T/C (endpoint: mean survival time, dose: 13.5 mg/kg/injection, schedule: Q01DX015 (ip), vehicle: carboxymethylcellulose (CMC)): 106 % of control
T/C (endpoint: mean survival time, dose: 20.0 mg/kg/injection, schedule: Q02DX010 (ip), vehicle: other): 120 % of control
T/C (endpoint: mean survival time, dose: 25.0 mg/kg/injection, schedule: Q01DX009 (ip), vehicle: saline): 106 % of control
T/C (endpoint: mean survival time, dose: 30.0 mg/kg/injection, schedule: Q02DX010 (ip), vehicle: other): 115 % of control
T/C (endpoint: mean survival time, dose: 45.0 mg/kg/injection, schedule: Q02DX010 (ip), vehicle: other): 121 % of control
T/C (endpoint: mean survival time, dose: 67.0 mg/kg/injection, schedule: Q02DX010 (ip), vehicle: other): 91 % of control
T/C (endpoint: mean survival time, dose: 80.0 mg/kg/injection, schedule: Q01DX001 (ip), vehicle: carboxymethylcellulose (CMC)): 111 % of control
T/C (endpoint: mean survival time, dose: 120.0 mg/kg/injection, schedule: Q01DX001 (ip), vehicle: carboxymethylcellulose (CMC)): 103 % of control
T/C (endpoint: mean survival time, dose: 182.0 mg/kg/injection, schedule: Q01DX001 (ip), vehicle: carboxymethylcellulose (CMC)): 117 % of control
T/C (endpoint: median survival time, dose: 3.0 mg/kg/injection, schedule: Q01DX009 (ip), vehicle: saline): 100 % of control and 105 % of control
T/C (endpoint: median survival time, dose: 6.0 mg/kg/injection, schedule: Q01DX009 (ip), vehicle: saline): 100 % of control and 111 % of control
T/C (endpoint: median survival time, dose: 12.0 mg/kg/injection, schedule: Q01DX009 (ip), vehicle: saline): 112 % of control
T/C (endpoint: median survival time, dose: 24.0 mg/kg/injection, schedule: Q01DX009 (ip), vehicle: saline): 100 % of control and 112 % of control

CC1CC(C)(C)N=C(CCC[N+](=O)[O-])O1 (stereo unspecified)
T/C (endpoint: mean survival time, dose: 200.0 mg/kg/injection, schedule: Q04DX003 (ip), vehicle: other): 103 % of control
T/C (endpoint: mean survival time, dose: 400.0 mg/kg/injection, schedule: Q04DX003 (ip), vehicle: other): 88 % of control
